Measured values as given in the supplement of paper PMC9013687.
± gives the standard deviation of the averaged measurements.

Key:
Danio rerio embryo [1] = experiment: EC20 Eye-jaw distance_Decrease; higher = less potent; settings: exposure time: 4 dpf
Protocol: (§1)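 Zebrafish embryos (UFZ-OBI strain) were exposed from 2 hpf for 48 h (2 dpf) or 96 h (4 dpf) at 28 °C; spontaneous tail coiling was scored at 25 hpf. Morphological features from automated image analysis (FishInspector), heart rate and locomotor response were fitted with drc models. Quantal endpoints were dichotomised at 2.5 SD from controls and fitted with a log-logistic model; heart rate, pigmentation and STC were normalised to the replicate control mean. Betamethasone was tested as betamethasone dipropionate, diflorasone as diflorasone diacetate.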

Danio rerio embryo [2] = experiment: EC20 Curvature_Increase; higher = less potent
Protocol: as §1

Danio rerio embryo [3] = experiment: EC20 LMR dark; higher = less potent; settings: exposure time: 4 dpf
Protocol: as §1

Danio rerio embryo [4] = experiment: EC50 Body length_Decrease
Protocol: as §1

Danio rerio embryo [5] = experiment: EC20 Any effect; higher = less potent
Protocol: as §1

Danio rerio embryo [6] = experiment: EC10 Body length_Decrease; higher = less potent
Protocol: as §1

Danio rerio embryo [7] = experiment: EC20 Otolith-eye distance_Decrease; higher = less potent; settings: exposure time: 4 dpf
Protocol: as §1

Danio rerio embryo [8] = experiment: EC10 Yolk sac size_Increase; higher = less potent; settings: exposure time: 4 dpf
Protocol: as §1

Danio rerio embryo [9] = test system: Danio rerio embryo
Protocol: as §1

Danio rerio embryo [10] = experiment: EC10 Curvature_Increase; higher = less potent
Protocol: as §1

Danio rerio embryo [11] = experiment: EC10 Any effect; higher = less potent
Protocol: as §1

Danio rerio embryo [12] = experiment: EC10 Bladder size_Decrease; higher = less potent; settings: exposure time: 4 dpf
Protocol: as §1

Danio rerio embryo [13] = experiment: EC10 Pericard size_Increase; higher = less potent
Protocol: as §1

Danio rerio embryo [14] = experiment: EC10 Otolith-eye distance_Decrease; higher = less potent; settings: exposure time: 4 dpf
Protocol: as §1

Danio rerio embryo [15] = experiment: EC50 Eye-jaw distance_Decrease; settings: exposure time: 4 dpf
Protocol: as §1

Danio rerio embryo [16] = experiment: EC10 LMR dark; higher = less potent; settings: exposure time: 4 dpf
Protocol: as §1

Danio rerio embryo [17] = experiment: EC20 Yolk sac size_Increase; higher = less potent; settings: exposure time: 4 dpf
Protocol: as §1

Danio rerio embryo [18] = experiment: EC50 Yolk sac size_Increase; settings: exposure time: 4 dpf
Protocol: as §1

Danio rerio embryo [19] = settings: exposure time: 4 dpf
Protocol: as §1

Danio rerio embryo [20] = experiment: EC20 Bladder size_Decrease; higher = less potent; settings: exposure time: 4 dpf
Protocol: as §1

Danio rerio embryo [21] = experiment: EC50 Otolith-eye distance_Decrease; settings: exposure time: 4 dpf
Protocol: as §1

Danio rerio embryo [22] = experiment: EC50 Bladder size_Decrease; settings: exposure time: 4 dpf
Protocol: as §1

Danio rerio embryo [23] = experiment: spontaneous tail coiling frequency (coils/min/embryo); higher = more spontaneous movement; settings: 25 hpf
Protocol: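 Spontaneous tail coilings of zebrafish embryos exposed from 2 hpf were recorded at 24-25 hpf in 1-min videos and detected by a KNIME workflow from grey-value variance. Betamethasone was tested as the dipropionate, diflorasone as the diacetate.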

Danio rerio embryo [24] = experiment: EC20 Pericard size_Increase; higher = less potent
Protocol: as §1

Danio rerio embryo [25] = experiment: EC10 Eye-jaw distance_Decrease; higher = less potent; settings: exposure time: 4 dpf
Protocol: as §1

Danio rerio embryo [26] = experiment: EC50 Pericard size_Increase
Protocol: as §1

Danio rerio embryo [27] = experiment: EC20 Body length_Decrease; higher = less potent
Protocol: as §1

Danio rerio embryo [28] = experiment: EC50 Curvature_Increase
Protocol: as §1

CC(C)(C)C(O)/C(=C/c1ccc(Cl)cc1Cl)n1cncn1 (stereo unspecified) [Diniconazole]
EC20 Eye-jaw distance Decrease (Danio rerio embryo [1]): 2.57 µM | EC20 Curvature Increase (Danio rerio embryo [2]; exposure time: 2 dpf): 4.89 µM | EC20 Curvature Increase (Danio rerio embryo [2]; exposure time: 4 dpf): 3.75 µM | EC20 LMR dark (Danio rerio embryo [3]): 2.86 µM | EC50 Body length Decrease (Danio rerio embryo [4]; exposure time: 2 dpf): 8.59 µM | EC50 Body length Decrease (Danio rerio embryo [4]; exposure time: 4 dpf): 6.97 µM | EC20 Any effect (Danio rerio embryo [5]; exposure time: 2 dpf): 3 µM | EC20 Any effect (Danio rerio embryo [5]; exposure time: 4 dpf): 1.89 µM | EC10 Body length Decrease (Danio rerio embryo [6]; exposure time: 2 dpf): 6.73 µM | EC10 Body length Decrease (Danio rerio embryo [6]; exposure time: 4 dpf): 5.67 µM | EC20 Otolith-eye distance Decrease (Danio rerio embryo [7]): 4.28 µM | EC10 Yolk sac size Increase (Danio rerio embryo [8]): 1.26 µM | EC50 Any effect (Danio rerio embryo [9]; exposure time: 2 dpf): 3.77 µM | EC50 Any effect (Danio rerio embryo [9]; exposure time: 4 dpf): 2.61 µM | EC50 LMR ligth decrease (Danio rerio embryo [9]; exposure time: 4 dpf): 2.31 µM | EC50 Pigmentation increase (Danio rerio embryo [9]; exposure time: 4 dpf): 11.8 µM | EC10 Curvature Increase (Danio rerio embryo [10]; exposure time: 2 dpf): 3.94 µM | EC10 Curvature Increase (Danio rerio embryo [10]; exposure time: 4 dpf): 2.76 µM | EC10 Any effect (Danio rerio embryo [11]; exposure time: 2 dpf): 2.63 µM | EC10 Any effect (Danio rerio embryo [11]; exposure time: 4 dpf): 1.56 µM | EC10 Bladder size Decrease (Danio rerio embryo [12]): 1.71 µM | EC10 Pericard size Increase (Danio rerio embryo [13]; exposure time: 2 dpf): 1.54 µM | EC10 Pericard size Increase (Danio rerio embryo [13]; exposure time: 4 dpf): 3.8 µM | EC10 Otolith-eye distance Decrease (Danio rerio embryo [14]): 3.74 µM | EC50 Eye-jaw distance Decrease (Danio rerio embryo [15]): 2.91 µM | EC10 LMR dark (Danio rerio embryo [16]): 2.25 µM | EC20 Yolk sac size Increase (Danio rerio embryo [17]): 1.74 µM | EC50 Yolk sac size Increase (Danio rerio embryo [18]): 3.05 µM | EC50 LMR dark (Danio rerio embryo [19]): 4.3 µM | EC20 Bladder size Decrease (Danio rerio embryo [20]): 1.92 µM | EC50 Otolith-eye distance Decrease (Danio rerio embryo [21]): 5.4 µM | EC50 Bladder size Decrease (Danio rerio embryo [22]): 2.35 µM | spontaneous tail coiling frequency (Danio rerio embryo [23]; 1.13 µM): 1.89 | spontaneous tail coiling frequency (Danio rerio embryo [23]; 1.7 µM): 2.58 ± 0.22 | spontaneous tail coiling frequency (Danio rerio embryo [23]; 2.55 µM): 2.31 ± 0.11 | spontaneous tail coiling frequency (Danio rerio embryo [23]; 3.8 µM): 2.05 ± 0.38 | spontaneous tail coiling frequency (Danio rerio embryo [23]; 5.75 µM): 2.87 | spontaneous tail coiling frequency (Danio rerio embryo [23]; 7.66 µM): 3.42 ± 0.86 | spontaneous tail coiling frequency (Danio rerio embryo [23]; 9.2 µM): 3.35 | EC20 Pericard size Increase (Danio rerio embryo [24]; exposure time: 2 dpf): 2.51 µM | EC20 Pericard size Increase (Danio rerio embryo [24]; exposure time: 4 dpf): 3.81 µM | EC10 Eye-jaw distance Decrease (Danio rerio embryo [25]): 2.39 µM | EC50 Pericard size Increase (Danio rerio embryo [26]; exposure time: 2 dpf): 5.78 µM | EC50 Pericard size Increase (Danio rerio embryo [26]; exposure time: 4 dpf): 3.83 µM | EC20 Body length Decrease (Danio rerio embryo [27]; exposure time: 2 dpf): 7.36 µM | EC20 Body length Decrease (Danio rerio embryo [27]; exposure time: 4 dpf): 6.12 µM | EC50 Curvature Increase (Danio rerio embryo [28]; exposure time: 2 dpf): 7.07 µM | EC50 Curvature Increase (Danio rerio embryo [28]; exposure time: 4 dpf): 6.35 µM

C[Si](Cn1cncn1)(c1ccc(F)cc1)c1ccc(F)cc1 [Flusilazole]
EC20 Eye-jaw distance Decrease (Danio rerio embryo [1]): 2.67 µM | EC20 Curvature Increase (Danio rerio embryo [2]; exposure time: 2 dpf): 7.67 µM | EC20 Curvature Increase (Danio rerio embryo [2]; exposure time: 4 dpf): 3.03 µM | EC20 LMR dark (Danio rerio embryo [3]): 1.72 µM | EC50 Body length Decrease (Danio rerio embryo [4]; exposure time: 2 dpf): 10.3 µM | EC50 Body length Decrease (Danio rerio embryo [4]; exposure time: 4 dpf): 3.04 µM | EC20 Any effect (Danio rerio embryo [5]; exposure time: 2 dpf): 6.04 µM | EC20 Any effect (Danio rerio embryo [5]; exposure time: 4 dpf): 1.92 µM | EC10 Body length Decrease (Danio rerio embryo [6]; exposure time: 2 dpf): 6.91 µM | EC10 Body length Decrease (Danio rerio embryo [6]; exposure time: 4 dpf): 2.31 µM | EC20 Otolith-eye distance Decrease (Danio rerio embryo [7]): 4.25 µM | EC10 Yolk sac size Increase (Danio rerio embryo [8]): 3.89 µM | EC50 Any effect (Danio rerio embryo [9]; exposure time: 2 dpf): 7.6 µM | EC50 Any effect (Danio rerio embryo [9]; exposure time: 4 dpf): 2.65 µM | EC50 STC decrease (Danio rerio embryo [9]; exposure time: 25 h): 8.34 µM | EC10 Curvature Increase (Danio rerio embryo [10]; exposure time: 2 dpf): 6.73 µM | EC10 Curvature Increase (Danio rerio embryo [10]; exposure time: 4 dpf): 2.07 µM | EC10 Any effect (Danio rerio embryo [11]; exposure time: 2 dpf): 5.28 µM | EC10 Any effect (Danio rerio embryo [11]; exposure time: 4 dpf): 1.6 µM | EC10 Bladder size Decrease (Danio rerio embryo [12]): 1.46 µM | EC10 Pericard size Increase (Danio rerio embryo [13]; exposure time: 4 dpf): 5.02 µM | EC10 Otolith-eye distance Decrease (Danio rerio embryo [14]): 3.65 µM | EC50 Eye-jaw distance Decrease (Danio rerio embryo [15]): 3.73 µM | EC10 LMR dark (Danio rerio embryo [16]): 1.3 µM | EC20 Yolk sac size Increase (Danio rerio embryo [17]): 5.53 µM | EC50 Yolk sac size Increase (Danio rerio embryo [18]): 10.1 µM | EC50 LMR dark (Danio rerio embryo [19]): 2.77 µM | EC20 Bladder size Decrease (Danio rerio embryo [20]): 1.69 µM | EC50 Otolith-eye distance Decrease (Danio rerio embryo [21]): 5.51 µM | EC50 Bladder size Decrease (Danio rerio embryo [22]): 2.14 µM | spontaneous tail coiling frequency (Danio rerio embryo [23]; 1.98167 µM): 2.65 | spontaneous tail coiling frequency (Danio rerio embryo [23]; 3.96335 µM): 1.93 | spontaneous tail coiling frequency (Danio rerio embryo [23]; 6.3 µM): 1.95 | spontaneous tail coiling frequency (Danio rerio embryo [23]; 7.92669 µM): 1.22 | spontaneous tail coiling frequency (Danio rerio embryo [23]; 9.4 µM): 1.84 | spontaneous tail coiling frequency (Danio rerio embryo [23]; 14.1 µM): 1.52 | spontaneous tail coiling frequency (Danio rerio embryo [23]; 15.8534 µM): 0 | spontaneous tail coiling frequency (Danio rerio embryo [23]; 21.1 µM): 0 | spontaneous tail coiling frequency (Danio rerio embryo [23]; 31.7 µM): 0 | spontaneous tail coiling frequency (Danio rerio embryo [23]; 31.7068 µM): 0 | spontaneous tail coiling frequency (Danio rerio embryo [23]; 47.6 µM): 0 | EC20 Pericard size Increase (Danio rerio embryo [24]; exposure time: 4 dpf): 5.53 µM | EC10 Eye-jaw distance Decrease (Danio rerio embryo [25]): 2.2 µM | EC50 Pericard size Increase (Danio rerio embryo [26]; exposure time: 4 dpf): 6.51 µM | EC20 Body length Decrease (Danio rerio embryo [27]; exposure time: 2 dpf): 8.01 µM | EC20 Body length Decrease (Danio rerio embryo [27]; exposure time: 4 dpf): 2.55 µM | EC50 Curvature Increase (Danio rerio embryo [28]; exposure time: 2 dpf): 9.58 µM | EC50 Curvature Increase (Danio rerio embryo [28]; exposure time: 4 dpf): 5.85 µM
